Data published in US8129398B2 (priority 2008, dated 2012).

The compounds below were run against T1, HIV-integrase (Human immunodeficiency virus type 1 group M subtype B, UniProt P12497) (assay: HIV-Integrase Inhibition Activity (SPA bead integration assay with P33 labeled target DNA)). Settings: recombinant integrase, class symbols; read-out: in vitro activity.
T1 construct: Recombinant integrase (0.26 ng) was incubated with the beads
Assay type: biochemical
Summary of the method: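 Biotinylated substrate DNA on streptavidin SPA beads loaded with recombinant integrase (90 min, 37° C), washed, then inhibitor plus 0.1 fmol P33-labeled target DNA added. Reaction stopped with 10 mM EDTA; integration measured as CPM by scintillation, giving IC50 ranks.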

`Cc1cc(CNC(=O)c2nc3n(c(=O)c2O)CC2CCC3(NC(=O)C3=NNC(=O)CC3)CC2)ccc1F` [Example 305, 7,10-Ethanopyrimido[1,2-a]azepine-2-carboxamide, N-[(4-fluoro-3-methylphenyl)methyl]-4,6,7,8,9,10-hexahydro-3-hydroxy-4-oxo-10-[[(1,4,5,6-tetrahydro-6-oxo-3-pyridazinyl)carbonyl]amino]-] and `CN/C(=N\C#N)NC12CCC(CC1)Cn1c2nc(C(=O)NCc2ccc(F)c(C)c2)c(O)c1=O` [Example 335, 7,10-Ethanopyrimido[1,2-a]azepine-2-carboxamide, 10-[[(1Z)-(cyanoamino)(methylamino)methylene]amino]-N-[(4-fluoro-3-methylphenyl)methyl]-4,6,7,8,9,10-hexahydro-3-hydroxy-4-oxo-] cannot be ordered by IC50: under 0.01 µM for the first, under 0.01 µM for the second.

First: CN(C)C(=O)C(=O)NC12CCC(CC1)Cn1c2nc(C(=O)NCc2ccc(S(N)(=O)=O)cc2)c(O)c1=O [Example 379]
Second: CN(C)C(=O)C(=O)NC12CCC(CC1)Cn1c2nc(C(=O)NCc2ccc(O)cc2)c(O)c1=O [Example 390]
The IC50 of the first is lower: under 0.01 µM for the first, 0.01 to 0.1 µM for the second.

`CN(C)C(=O)C(=O)NC12CCC(CC1)Cn1c2nc(C(=O)NCc2ccc(F)c(F)c2)c(O)c1=O` [Example 111, N′-(2-((3,4-Difluorobenzyl)carbamoyl)-3-hydroxy-4-oxo-6,7,8,9-tetrahydro-7,10-ethanopyrimido[1,2-a]azepin-10(4H)-yl)-N,N-dimethylethanediamide] and `CN(C)C(=O)C(=O)NC12CCC(CC1)Cn1c2nc(C(=O)NCc2cccc(F)c2)c(O)c1=O` [Example 371] cannot be ordered by IC50: under 0.01 µM for the first, under 0.01 µM for the second.

`CN(C(=O)C(=O)N1CCCC1)C12CCC(CC1)Cn1c2nc(C(=O)NCc2ccc(F)cc2)c(O)c1=O` [Example 153, N-(4-Fluorobenzyl)-3-hydroxy-10-(methyl(oxo(1-pyrrolidinyl)acetyl)amino)-4-oxo-4,6,7,8,9,10-hexahydro-7,10-ethanopyrimido[1,2-a]azepine-2-carboxamide] and `O=C(NC12CCC(CC1)Cn1c2nc(C(=O)NCc2ccc(F)cc2)c(O)c1=O)C(=O)N1CCCC1` [Example 58, N-(4-Fluorobenzyl)-3-hydroxy-4-oxo-10-((oxo(1-pyrrolidinyl)acetyl)amino)-4,6,7,8,9,10-hexahydro-7,10-ethanopyrimido[1,2-a]azepine-2-carboxamide] cannot be ordered by IC50: under 0.01 µM for the first, under 0.01 µM for the second.

`O=C(NCc1ccc(F)cc1)c1nc2n(c(=O)c1O)CC1CCC2(NS(=O)(=O)c2ccccc2)CC1` [Example 395] and `O=C(NC12CCC(CC1)Cn1c2nc(C(=O)NCc2ccc(F)cc2)c(O)c1=O)c1ccccn1` [Example 26, N-(4-Fluorobenzyl)-3-hydroxy-4-oxo-10-((2-pyridinylcarbonyl)amino)-4,6,7,8,9,10-hexahydro-7,10-ethanopyrimido[1,2-a]azepine-2-carboxamide] cannot be ordered by IC50: under 0.01 µM for the first, under 0.01 µM for the second.

`O=C(NCc1ccc(F)cc1)c1nc2n(c(=O)c1O)CC1CCC2(Nc2ncc[nH]2)CC1` [Example 334, 7,10-Ethanopyrimido[1,2-a]azepine-2-carboxamide, N-[(4-fluorophenyl)methyl]-4,6,7,8,9,10-hexahydro-3-hydroxy-10-(1H-imidazol-2-ylamino)-4-oxo-] and `CC(=O)N1CC[C@H]1C(=O)NC12CCC(CC1)Cn1c2nc(C(=O)NCc2ccc(F)cc2)c(O)c1=O` [Example 267, 7,10-Ethanopyrimido[1,2-a]azepine-2-carboxamide, 10-[[[(2S)-1-acetyl-2-azetidinyl]carbonyl]amino]-N-[(4-fluorophenyl)methyl]-4,6,7,8,9,10-hexahydro-3-hydroxy-4-oxo-] cannot be ordered by IC50: under 0.01 µM for the first, under 0.01 µM for the second.

`COC(=O)c1sccc1S(=O)(=O)N1CCN(C(=O)C(=O)NC23CCC(CC2)Cn2c3nc(C(=O)NCc3ccc(F)cc3)c(O)c2=O)CC1` [Example 147, Methyl 3-((4-(((2-((4-fluorobenzyl)carbamoyl)-3-hydroxy-4-oxo-6,7,8,9-tetrahydro-7,10-ethanopyrimido[1,2-a]azepin-10(4H)-yl)amino) (oxo)acetyl)-1-piperazinyl)sulfonyl)-2-thiophenecarboxylate] and `Cn1cnc(S(=O)(=O)N2CCN(C(=O)C(=O)NC34CCC(CC3)Cn3c4nc(C(=O)NCc4ccc(F)cc4)c(O)c3=O)CC2)c1` [Example 148, N-(4-Fluorobenzyl)-3-hydroxy-10-(((4-((1-methyl-1H-imidazol-4-yl)sulfonyl)-1-piperazinyl)(oxo)acetyl)amino)-4-oxo-4,6,7,8,9,10-hexahydro-7,10-ethanopyrimido[1,2-a]azepine-2-carboxamide] cannot be ordered by IC50: under 0.01 µM for the first, under 0.01 µM for the second.

First: CN(C)C(=O)C(=O)NC12CCC(CC1)Cn1c2nc(C(=O)NCCc2ccccc2)c(O)c1=O [Example 343]
Second: CN(C)C(=O)C(=O)NC12CCC(CC1)Cn1c2nc(C(=O)NCCc2cccc(Cl)c2)c(O)c1=O [Example 353]
The IC50 of the first is higher: 0.01 to 0.1 µM for the first, under 0.01 µM for the second.

`CC(C)OC(=O)N1CCCC1C(=O)NC12CCC(CC1)Cn1c2nc(C(=O)NCc2ccc(F)cc2)c(O)c1=O` (stereo not drawn) [Example 405] and `CS(=O)(=O)N1CC[C@H]1C(=O)NC12CCC(CC1)Cn1c2nc(C(=O)NCc2ccc(F)cc2)c(O)c1=O` [Example 268, 7,10-Ethanopyrimido[1,2-a]azepine-2-carboxamide, N-[(4-fluorophenyl)methyl]-4,6,7,8,9,10-hexahydro-3-hydroxy-10-[[[(2S)-1-(methylsulfonyl)-2-azetidinyl]carbonyl]amino]-4-oxo-] cannot be ordered by IC50: under 0.01 µM for the first, under 0.01 µM for the second.

`Cc1cc(CNC(=O)c2nc3n(c(=O)c2O)CC2CCC3(NC(=O)C(C)(C)n3cc(C(=O)N4CCN(C)CC4)nn3)CC2)ccc1F` [Example 288, 7,10-Ethanopyrimido[1,2-a]azepine-2-carboxamide, N-[(4-fluoro-3-methylphenyl)methyl]-4,6,7,8,9,10-hexahydro-3-hydroxy-10-[[2-methyl-2-[4-[(4-methyl-1-piperazinyl)carbonyl]-1H-1,2,3-triazol-1-yl]-1-oxopropyl]amino]-4-oxo-] and `COCCN1CCN(C(=O)C(=O)NC23CCC(CC2)Cn2c3nc(C(=O)NCc3ccc(F)cc3)c(O)c2=O)CC1` [Example 73, N-(4-Fluorobenzyl)-3-hydroxy-10-(((4-(2-methoxyethyl)-1-piperazinyl)(oxo)acetyl)amino)-4-oxo-4,6,7,8,9,10-hexahydro-7,10-ethanopyrimido[1,2-a]azepine-2-carboxamide] cannot be ordered by IC50: under 0.01 µM for the first, under 0.01 µM for the second.

`CN(C)C(=O)C(=O)NC12CCC(CC1)Cn1c2nc(C(=O)NCCC(C)(C)C)c(O)c1=O` [Example 348] and `COc1ccc(CCNC(=O)c2nc3n(c(=O)c2O)CC2CCC3(NC(=O)C(=O)N(C)C)CC2)cc1` [Example 346] cannot be ordered by IC50: over 0.1 µM for the first, over 0.1 µM for the second.

`CN(C)C(=O)C(=O)N(C)C12CCC(CCn3c1nc(C(=O)NCc1ccc(F)cc1)c(O)c3=O)C2` (stereo not drawn) [Example 211, Ethanediamide, N-[2-[[[(4-fluorophenyl)methyl]amino]carbonyl]-7,8,9,10-tetrahydro-3-hydroxy-4-oxo-8,11-methano-4H-pyrimido[1,2-a]azocin-11(6H)-yl]-N,N′,N′-trimethyl-] and `COCCN(C)C(=O)C(=O)NC12CCC(CCn3c1nc(C(=O)NCc1ccc(F)cc1)c(O)c3=O)C2` (stereo not drawn) [Example 205, Ethanediamide, N′-[2-[[[(4-fluorophenyl)methyl]amino]carbonyl]-7,8,9,10-tetrahydro-3-hydroxy-4-oxo-8,11-methano-4H-pyrimido[1,2-a]azocin-11(6H)-yl]-N-(2-methoxyethyl)-N-methyl-] cannot be ordered by IC50: under 0.01 µM for the first, under 0.01 µM for the second.

`Cc1ncnn1-c1cc(F)ccc1CNC(=O)c1nc2n(c(=O)c1O)CC1CCC2(NC(=O)C(=O)N(C)C)CC1` [Example 108, N′-(2-((4-Fluoro-2-(5-methyl-1H-1,2,4-triazol-1-yl)benzyl)carbamoyl)-3-hydroxy-4-oxo-6,7,8,9-tetrahydro-7,10-ethanopyrimido[1,2-a]azepin-10(4H)-yl)-N,N-dimethylethanediamide] and `Cc1cc(C(=O)NC23CCC(CC2)Cn2c3nc(C(=O)NCc3ccc(F)cc3-n3ncnc3C)c(O)c2=O)no1` [Example 37, N-(4-Fluoro-2-(5-methyl-1H-1,2,4-triazol-1-yl)benzyl)-3-hydroxy-10-(((5-methyl-3-isoxazolyl)carbonyl)amino)-4-oxo-4,6,7,8,9,10-hexahydro-7,10-ethanopyrimido[1,2-a]azepine-2-carboxamide] fall in the same range of IC50: 0.01 to 0.1 µM for the first, 0.01 to 0.1 µM for the second.

`CN(C)C(=O)C(=O)NC12CCC(CC1)Cn1c2nc(C(=O)NCc2ccc(F)cc2C(F)(F)F)c(O)c1=O` [Example 121, N′-(2-((4-Fluoro-2-(trifluoromethyl)benzyl)carbamoyl)-3-hydroxy-4-oxo-6,7,8,9-tetrahydro-7,10-ethanopyrimido[1,2-a]azepin-10(4H)-yl)-N,N-dimethylethanediamide] and `CN(C)C(=O)C(=O)NC12CCCC(Cn3c1nc(C(=O)NCc1ccc(F)cc1)c(O)c3=O)C2` (stereo not drawn) [Example 186, Ethanediamide, N′-[2-[[[(4-fluorophenyl)methyl]amino]carbonyl]-7,8,9,10-tetrahydro-3-hydroxy-4-oxo-7,11-methano-4H-pyrimido[1,2-a]azocin-11(6H)-yl]-N,N-dimethyl-] cannot be ordered by IC50: under 0.01 µM for the first, under 0.01 µM for the second.

`CN(C(=O)c1ccncc1)C12CCC(CC1)Cn1c2nc(C(=O)NCc2ccc(F)cc2)c(O)c1=O` [Example 310, 7,10-Ethanopyrimido[1,2-a]azepine-2-carboxamide, N-[(4-fluorophenyl)methyl]-4,6,7,8,9,10-hexahydro-3-hydroxy-10-[methyl(4-pyridinylcarbonyl)amino]-4-oxo-] and `O=C(NC12CCC(CC1)Cn1c2nc(C(=O)NCc2ccc(F)cc2)c(O)c1=O)C(=O)N1CCN(c2ccccc2)CC1` [Example 77, N-(4-Fluorobenzyl)-3-hydroxy-4-oxo-10-((oxo(4-phenyl-1-piperazinyl)acetyl)amino)-4,6,7,8,9,10-hexahydro-7,10-ethanopyrimido[1,2-a]azepine-2-carboxamide] cannot be ordered by IC50: under 0.01 µM for the first, under 0.01 µM for the second.
